Results published in patent US20260007684A1, “AMIDE DERIVATIVES FOR INHIBITING NLRP3 AND USES THEREOF” (Ventus Therapeutics U.S., Inc., priority 2023, published 2026).
Where two headings read alike, the source gives them in different places.

Legend:
human NLRP3 [1] = biological target: T1, human NLRP3 (Homo sapiens (Human), UniProt Q96P20); assay: Scintillation Proximity (SPA) NLRP3 Assay: displacement of 3H-MCC950; assay type: binding; details: for IC50: read-out: SPA IC50
human NLRP3 [2] = biological target: T1, human NLRP3; assay: Human Whole Blood (hWB) NLRP3 Assay (LPS/ATP, IL-1β); assay type: cell-based
mouse NLRP3 = mouse NLRP3 (Mus musculus (Mouse), UniProt Q8R4B8); assay: Mouse Whole Blood (mWB) NLRP3 Assay (LPS/ATP, IL-1b); assay type: cell-based
Protocol: Reagents: The following reagents were used: blood collection tubes (Heparin); U-bottom 96-well tissue culture (Falcon 353077); HBSS for LPS, ATP and compound dilutions (Gibco 24020-117); and LPS, E. coli serotype 026:B6 (Sigma L-2654).
Mouse IL-1b MSD assay: Blood was drawn from female CD1 mice (9 to 10 weeks) by cardiac puncture. Blood was plated (135 μL) per well in 96-well U-bottom plates. 7.5 μL of 20×LPS (20 μg/mL, final concentration of 1 μg/mL) was added and mixed by gentle pipetting, and the mixture was incubated in a TC incubator for five hours. 7.5 μL of 20× compound or vehicle per well was added and mixed by gentle pipetting. Compounds were diluted 1/50 in HBSS to prepare a 20× dilution curve in […].
The mixture was incubated for 30 minutes in a TC incubator with shaking (450 rpm). 5 μl of 31×ATP (155 mM, final concentration of 5 mM) was added and mixed by gentle pipetting. The mixture was incubated in a TC incubator for 30 minutes with shaking (450 rpm). The plate was centrifuged for 10 minutes at 800×g and −70 μL of plasma was removed. Plasma was frozen if required. Mouse IL-1b was analyzed with IL-1b MSD assay (K152TUK).
Compounds were added 30 minutes before priming the cells with LPS when TNFα was required to be quantified in the cytokine panel to confirm selectivity.

human NLRP3 [3] = biological target: T1, human NLRP3; assay: Human PBMC NLRP3 Assay (LPS priming, ATP stimulation, cytokine measurement); assay type: cell-based
[4] = human whole blood, LPS/ATP, IL-1β, read-out: hWB IC50
[5] = mouse whole blood, LPS/ATP, IL-1b
[6] = human PBMC, LPS priming, ATP stimulation, read-out: PBMC IC50
[7] = PBMC IC50, human PBMC, LPS priming, ATP stimulation
[8] = hWB IC50, human whole blood, LPS/ATP, IL-1β

Chain of mouse NLRP3 (Q8R4B8 whole entry): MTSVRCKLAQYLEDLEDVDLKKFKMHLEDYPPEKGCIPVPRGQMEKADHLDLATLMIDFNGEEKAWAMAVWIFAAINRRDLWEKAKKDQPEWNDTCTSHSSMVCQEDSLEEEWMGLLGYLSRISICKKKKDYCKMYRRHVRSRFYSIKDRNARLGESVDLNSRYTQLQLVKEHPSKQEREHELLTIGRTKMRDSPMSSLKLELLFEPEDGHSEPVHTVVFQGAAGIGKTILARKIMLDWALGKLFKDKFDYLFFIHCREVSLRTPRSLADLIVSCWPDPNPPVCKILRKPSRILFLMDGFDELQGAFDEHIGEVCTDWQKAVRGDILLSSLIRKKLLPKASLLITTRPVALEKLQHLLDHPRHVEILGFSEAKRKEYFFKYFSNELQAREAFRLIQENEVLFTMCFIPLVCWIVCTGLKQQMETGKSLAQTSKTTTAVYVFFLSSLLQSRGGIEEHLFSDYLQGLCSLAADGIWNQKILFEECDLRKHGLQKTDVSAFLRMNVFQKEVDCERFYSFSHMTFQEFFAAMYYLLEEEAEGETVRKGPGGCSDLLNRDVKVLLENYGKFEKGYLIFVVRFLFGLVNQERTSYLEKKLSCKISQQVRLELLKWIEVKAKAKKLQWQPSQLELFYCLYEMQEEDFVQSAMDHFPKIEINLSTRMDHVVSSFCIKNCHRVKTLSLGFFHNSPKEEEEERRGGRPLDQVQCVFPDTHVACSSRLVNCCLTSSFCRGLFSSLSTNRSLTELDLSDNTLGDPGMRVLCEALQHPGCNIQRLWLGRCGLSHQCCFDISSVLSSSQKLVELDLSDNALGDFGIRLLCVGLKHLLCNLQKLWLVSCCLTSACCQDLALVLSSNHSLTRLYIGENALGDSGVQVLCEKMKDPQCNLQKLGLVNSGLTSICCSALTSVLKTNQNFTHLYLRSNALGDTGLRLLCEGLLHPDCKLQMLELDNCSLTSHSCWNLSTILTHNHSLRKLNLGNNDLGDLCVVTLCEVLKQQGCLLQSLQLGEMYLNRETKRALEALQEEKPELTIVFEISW
T1 sequence (Q96P20 whole entry): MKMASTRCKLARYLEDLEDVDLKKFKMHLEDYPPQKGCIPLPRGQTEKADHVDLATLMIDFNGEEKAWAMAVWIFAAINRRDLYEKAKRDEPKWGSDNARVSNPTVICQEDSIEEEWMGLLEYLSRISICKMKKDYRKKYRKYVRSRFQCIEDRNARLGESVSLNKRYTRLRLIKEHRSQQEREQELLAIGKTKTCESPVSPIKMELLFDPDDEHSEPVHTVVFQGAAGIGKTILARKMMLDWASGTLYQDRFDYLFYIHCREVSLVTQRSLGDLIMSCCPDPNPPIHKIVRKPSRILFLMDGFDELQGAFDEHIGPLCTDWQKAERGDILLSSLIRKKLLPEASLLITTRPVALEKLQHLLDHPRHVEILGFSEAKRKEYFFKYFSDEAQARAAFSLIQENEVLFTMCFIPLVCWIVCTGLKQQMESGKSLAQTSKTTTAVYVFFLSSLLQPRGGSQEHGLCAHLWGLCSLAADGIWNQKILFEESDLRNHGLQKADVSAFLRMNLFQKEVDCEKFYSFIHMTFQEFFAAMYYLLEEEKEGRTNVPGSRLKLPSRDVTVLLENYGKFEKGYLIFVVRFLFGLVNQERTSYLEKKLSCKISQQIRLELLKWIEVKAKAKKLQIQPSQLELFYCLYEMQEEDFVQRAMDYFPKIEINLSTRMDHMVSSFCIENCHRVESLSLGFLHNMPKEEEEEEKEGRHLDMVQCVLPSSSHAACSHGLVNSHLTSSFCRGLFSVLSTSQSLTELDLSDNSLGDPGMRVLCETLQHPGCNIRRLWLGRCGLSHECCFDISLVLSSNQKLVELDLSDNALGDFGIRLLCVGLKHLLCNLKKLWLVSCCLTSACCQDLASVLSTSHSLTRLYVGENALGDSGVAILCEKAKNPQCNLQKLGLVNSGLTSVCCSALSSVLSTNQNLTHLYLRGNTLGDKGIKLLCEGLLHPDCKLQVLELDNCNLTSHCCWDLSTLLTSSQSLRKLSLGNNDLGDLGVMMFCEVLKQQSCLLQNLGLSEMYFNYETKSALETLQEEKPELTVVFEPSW

Compound | IC50 (human NLRP3 [1]; displacement of 3H-MCC950) | IC50 (human NLRP3 [2]; [4]) | IC50 (human NLRP3 [3]; [6]) | other results
O=C(N[C@H]1CN(c2nnn[nH]2)CCC(F)(F)C1)C1(c2ccc(Cl)cc2)CC1 (single isomer, unassigned) [53A*] | < 1 µM | < 1 µM | – | IC50 (mouse NLRP3; [5]): < 1 µM
C[C@H]1C[C@@H](NC(=O)C2(c3c(O)cc(C4CC4)cc3C(F)F)CC2)CN(c2nnn[nH]2)C1 (single isomer, unassigned) [97A*] | < 1 µM | – | 0.1 to 0.5 µM | IC50 (mouse NLRP3; [5]): < 1 µM
O=C(N[C@@H]1C[C@H](C(F)(F)F)CN(c2nnn[nH]2)C1)C1(c2ccc(Cl)cc2)CC1 [Compound 45A, 1-(4-chlorophenyl)-N-[(3R,5S)-1-(1H-tetrazol-5-yl)-5-(trifluoromethyl)-3-piperidyl]cyclopropanecarboxamide] | 1 to 10 µM | 2 to 3 µM | – | IC50 (mouse NLRP3; [5]): < 1 µM
C[C@@H]1CCN(c2nnn[nH]2)C[C@H](NC(=O)C2(c3ccc(Cl)cc3)CC2)C1 (single isomer, unassigned) [12A*, 1-(4-chlorophenyl)-N-(5-methyl-1-(1H-tetrazol-5-yl)azepan-3-yl)cyclopropane-1-carboxamide] | < 1 µM | < 1 µM | < 0.01 µM | IC50 (mouse NLRP3; [5]): < 1 µM
C[C@H]1C[C@@H](NC(=O)C2(c3ccc(Cl)cc3O)CC2)CN(c2nnn[nH]2)C1 [Compound 47A, 1-(4-chloro-2-hydroxyphenyl)-N-((3R,5S)-5-methyl-1-(1H-tetrazol-5-yl)piperidin-3-yl)cyclopropane-1-carboxamide] | < 1 µM | < 1 µM | < 0.01 µM | IC50 (human NLRP3 [1]): 0.048 µM; fold increase in binding activity (SPA IC50) (human NLRP3 [1]; relative to Compound 46A): 18 fold; IC50 (human NLRP3 [3]; read-out: PBMC IC50): 0.0067 µM; fold increase in potency as measured by PBMC IC50 (human NLRP3 [3]; relative to Compound 46A): 15 fold; IC50 (human NLRP3 [2]; read-out: hWB IC50): 0.22 µM; fold increase in potency as measured by hWB IC50 (human NLRP3 [2]; relative to Compound 46A): > 11 fold; IC50 (mouse NLRP3): 0.035 µM; IC50 (mouse NLRP3; [5]): < 1 µM; fold increase in potency as measured by mWB IC50 (mouse NLRP3; relative to Compound 46A): 4.9 fold
C[C@@H]1CCN(c2nnn[nH]2)C[C@H](NC(=O)C2(c3cc(F)c(Cl)cc3O)CC2)C1 (single isomer, unassigned) [29A*, 1-(4-chloro-5-fluoro-2-hydroxyphenyl)-N-(5-methyl-1-(1H-tetrazol-5-yl)azepan-3-yl)cyclopropane-1-carboxamide] | < 1 µM | 1 to 2 µM | 0.01 to 0.1 µM | –
O=C(N[C@@H]1CCCCCN(c2nnn[nH]2)C1)C1(c2ccc(Cl)cc2)CC1 (single isomer, unassigned) [14A*, N-(1-(1H-tetrazol-5-yl)azocan-3-yl)-1-(4-chlorophenyl)cyclopropane-1-carboxamide] | < 1 µM | 1 to 2 µM | 0.01 to 0.1 µM | –
C[C@@H]1CCN(c2nnn[nH]2)C[C@@H](NC(=O)C2(c3ccc(OC(F)(F)F)cc3O)CC2)C1 (single isomer, unassigned) [62B*] | < 1 µM | 1 to 2 µM | 0.01 to 0.1 µM | –
C[C@H]1C[C@@H](NC(=O)C2(c3ccc(OC(F)F)cc3O)CC2)CN(c2nnn[nH]2)C1 [Compound 19A, 1-(4-(difluoromethoxy)-2-hydroxyphenyl)-N-((3R,5S)-5-methyl-1-(1H-tetrazol-5-yl)piperidin-3-yl)cyclopropane-1-carboxamide] | < 1 µM | < 1 µM | 0.01 to 0.1 µM | –
O=C(N[C@@H]1CC[C@H]2CC[C@@H]1N2c1nnn[nH]1)C1(c2ccc(Cl)c(F)c2O)CC1 [76C*, N-((1S,2R,5S)-8-(1H-tetrazol-5-yl)-8-azabicyclo[3.2.1]octan-2-yl)-1-(4-chloro-3-fluoro-2-hydroxyphenyl)cyclopropane-1-carboxamide] | < 1 µM | 1 to 2 µM | 0.1 to 0.5 µM | –
O=C(N[C@@H]1CC[C@H]2CC[C@@H]1N2c1nnn[nH]1)C1(c2ccc(OC(F)F)cc2O)CC1 [77C*, N-((1S,2R,5S)-8-(1H-tetrazol-5-yl)-8-azabicyclo[3.2.1]octan-2-yl)-1-(4-(difluoromethoxy)-2-hydroxyphenyl)cyclopropane-1-carboxamide] | < 1 µM | – | – | IC50 (human NLRP3 [3]; [7]): 0.01 to 0.1 µM; IC50 (human NLRP3 [2]; [8]): < 1 µM
C[C@@H]1CCN(c2nnn[nH]2)C[C@H](NC(=O)C2(c3ccc(Cl)c(F)c3O)CC2)C1 (single isomer, unassigned) [18A*, 1-(4-chloro-3-fluoro-2-hydroxyphenyl)-N-(5-methyl-1-(1H-tetrazol-5-yl)azepan-3-yl)cyclopropane-1-carboxamide] | < 1 µM | < 1 µM | < 0.01 µM | –
Cc1cc(Cl)cc(O)c1C1(C(=O)N[C@@H]2C[C@H](C)CN(c3nnn[nH]3)C2)CC1 [Compound 33A, 1-(4-chloro-2-hydroxy-6-methylphenyl)-N-((3R,5S)-5-methyl-1-(1H-tetrazol-5-yl)piperidin-3-yl)cyclopropane-1-carboxamide] | < 1 µM | > 3 µM | 0.01 to 0.1 µM | –
O=C(N[C@@H]1CCCN(c2nnn[nH]2)C1)C1(c2ccc(Br)cc2)CC1 [Compound 39A, 1-(4-bromophenyl)-N-[(3R)-1-(1H-tetrazol-5-yl)-3-piperidyl]cyclopropanecarboxamide] | 1 to 10 µM | 1 to 2 µM | – | IC50 (mouse NLRP3; [5]): 1 to 2 µM
Cc1c(Cl)ccc(C2(C(=O)N[C@@H]3C[C@H](C)CCN(c4nnn[nH]4)C3)CC2)c1O (single isomer, unassigned) [21A*, 1-(4-chloro-2-hydroxy-3-methylphenyl)-N-(5-methyl-1-(1H-tetrazol-5-yl)azepan-3-yl)cyclopropane-1-carboxamide] | < 1 µM | < 1 µM | < 0.01 µM | –
C[C@@H]1CCN(c2nnn[nH]2)C[C@H](NC(=O)C2(c3ccc(Cl)cc3O)CC2)C1 (single isomer, unassigned) [60A*] | < 1 µM | < 1 µM | < 0.01 µM | –
C[C@@H]1CCN(c2nnn[nH]2)C[C@@H](NC(=O)C2(c3ccc(C(F)(F)F)cc3O)CC2)C1 (single isomer, unassigned) [63B*] | < 1 µM | < 1 µM | 0.01 to 0.1 µM | –
C[C@@H]1C[C@@H](NC(=O)C2(c3ccc(C4CC4)cc3)CC2)[C@H]2CC[C@@H]1N2c1nnn[nH]1 [81A*, 1-(4-cyclopropylphenyl)-N-((1R,2R,4R,5S)-4-methy1-8-(1H-tetrazol-5-yl)-8-azabicyclo[3.2.1]octan-2-yl)cyclopropane-1-carboxamide] | < 1 µM | – | – | IC50 (human NLRP3 [3]; [7]): 0.01 to 0.1 µM; IC50 (human NLRP3 [2]; [8]): < 1 µM
C[C@H]1C[C@@H](NC(=O)C2(c3ccc(C4CC4(F)F)cc3O)CC2)CN(c2nnn[nH]2)C1 (single isomer, unassigned) [94A*] | < 1 µM | > 3 µM | 0.01 to 0.1 µM | –
Cc1ccc(C2(C(=O)N[C@@H]3C[C@H](C)CCN(c4nnn[nH]4)C3)CC2)c(O)c1F (single isomer, unassigned) [74A*] | < 1 µM | < 1 µM | < 0.01 µM | –
O=C(Nc1cccc(-c2nnn[nH]2)c1)C1(c2ccc(Cl)cc2)CC1 [Comparative Example B1, N-(3-(1H-tetrazol-5-yl)phenyl)-1-(4-chlorophenyl)cyclopropane-1-carboxamide, reference compound] | – | – | – | IC50 (human NLRP3 [1]): 8 µM; IC50 (human NLRP3 [3]; read-out: PBMC IC50): 0.48 µM; IC50 (mouse NLRP3): > 50 µM
CC(C)c1ccc(C2(C(=O)N[C@@H]3C[C@H](C)CCN(c4nnn[nH]4)C3)CC2)c(O)c1 (single isomer, unassigned) [27A*, 1-(2-hydroxy-4-isopropylphenyl)-N-(5-methyl-1-(1H-tetrazol-5-yl)azepan-3-yl)cyclopropane-1-carboxamide] | < 1 µM | < 1 µM | < 0.01 µM | –
C[C@H]1C[C@@H](NC(=O)C2(c3ccc(C4CC4)cc3O)CC2)CN(c2nnn[nH]2)C1 [Compound 23A, 1-(4-cyclopropyl-2-hydroxyphenyl)-N-((3R,5S)-5-methyl-1-(1H-tetrazol-5-yl)piperidin-3-yl)cyclopropane-1-carboxamide] | < 1 µM | < 1 µM | 0.01 to 0.1 µM | –
C[C@@H]1CCN(c2nnn[nH]2)C[C@H](NC(=O)C2(c3ccc(C(F)(F)F)c(F)c3)CC2)C1 (single isomer, unassigned) [66A*] | < 1 µM | < 1 µM | < 0.01 µM | –
C[C@@H]1CCN(c2nnn[nH]2)C[C@H](NC(=O)C2(c3ccc(OC(F)(F)F)c(F)c3O)CC2)C1 (single isomer, unassigned) [28A*, 1-(3-fluoro-2-hydroxy-4-(trifluoromethoxy)phenyl)-N-(5-methyl-1-(1H-tetrazol-5-yl)azepan-3-yl)cyclopropane-1-carboxamide] | < 1 µM | > 3 µM | 0.01 to 0.1 µM | –
C[C@@H]1CCN(c2nnn[nH]2)C[C@H](NC(=O)C2(c3ccc(C(F)(F)F)cc3O)CC2)C1 (single isomer, unassigned) [63A*] | < 1 µM | < 1 µM | < 0.01 µM | –
